From patent US10968196B2, “Substituted β-lapachones for treating cancer” (University of Pittsburgh—Of the Commonwealth System of …, priority 2015, dated 2021)
“And” between values parts separate entries of the source, which are not always exact repeats. Equal entries are not always repeated.

How the values were obtained:
MDA-MB-231 rho0 cells = assay: Celltiter-blue cell viability in rho0 cells; type: cell-based; details: MDA-MB-231 rho0 cells (mtDNA depleted), increasing concentrations, 24 h (FIG. 8)
Description: MDA-MB-231 parental and rho0 cells (established by long-term culture of parental MDA-MB-231 cells in the presence of 50 ng/ml ethidium bromide) were treated with increasing concentrations of XJB-lapachone for 24 h. Cell viability was determined by Celltiter-blue.

A549 cells [1] = assay: Vacuole formation by phase contrast microscopy; type: cell-based; details: A549, 6 μM, 20 h, phase contrast microscopy (FIG. 3D)
Description: (§1) (3A) A549 non-small cell lung cancer cells were treated with XJB-OMe, 3-hydroxy-β-lapachone (14), or XJB-lapachone (18) at indicated concentrations for 24 h. Cell viability was determined by a CellTiter-Blue assay. Data represents the mean±SEM. (3B) PEO1 ovarian cancer cells, MDA-MB-231 breast cancer cells, and 983B melanoma cells were treated with XJB-lapachone (18) at indicated concentrations for 24 h. Cell viability was determined by a CellTiter-Blue assay. Data represents the mean±SEM. (3C) Equal numbers of A549 and IMR90 lung fibroblast cells were treated with 10 μM XJB-lapachone (18) for 4 h. XJB-lapachone was then washed away and cells were incubated in drug free media for 3 days. Cell viability was determined by a CellTiter-Blue assay. (3D) A549 cells were treated with XJB-OMe, 3-hydroxy-β-lapachone (14), or XJB-lapachone (18) at 6 μM concentrations for 20 h. The formation of vacuoles was examined by phase contrast microscopy. Representative images are shown. (3E) A549 cells were treated as described above. Apoptotic and necrotic cell death were determined by Annexin V and PI staining. Representative images are shown.
Microscopy: For vacuole imaging, A549 cells were plated in 12-well plate, treated with compounds and the phase contrast images were captured using a Nikon Eclipse TS100 inverted microscope. […]

A549 cells [2] = assay: Oxygen consumption rate, Seahorse extracellular flux analysis; type: cell-based; details: A549, 6 μM, 16 h, Seahorse (FIG. 4B)
Description: (§2) (4A) A549 cells were treated with XJB-OMe, 3-hydroxy-β-lapachone (14), or XJB-lapachone (18) at 6 μM for 16 h. The generation of ROS was determined by staining cells with MitoSox and DCFHDA. The fluorescence intensity was measured by flow cytometry. Data represents the mean±S.D. of triplicates. (4B) A549 cells were treated as described in A, and the oxygen consumption rate was determined by a Seahorse extracellular flux analyzer. […] (4C) A549 cells were treated as described in A, and mitochondria morphology was examined by electron microscopy. Representative images are shown. (4D) A549 cells were treated as described above. The expression of the autophagy marker LC3 was examined by western blot. β-actin was used as a loading control. Representative images are shown.
Extracellular flux (XF) analysis: Oxygen consumption rate (OCR) was measured using a Seahorse XF96 Extracellular Flux Analyzer (Seahorse Bioscience, North Billerica, Mass.), as previously described (Qian W, et al., Alterations in bioenergetics due to changes in mitochondrial DNA copy number. Methods 2010 51:452-457). Briefly, A549 cells were plated in a 6-well plate and treated with compounds for 16 h. After treatment, cells were trypsinized, counted, and plated at 40,000 cells per well in a XF96 microplate using Cell-Tak cell adhesive. OCR measurements were then performed using a XF96 analyzer.

A549 cells [3] = assay: ROS generation by DCF-DA and MitoSox, flow cytometry; type: cell-based; details: for ROS generation (DCF) / mitochondrial ROS generation (MitoSox): A549, 6 μM, 16 h, flow cytometry (FIG. 4A)
Description: as §2
(§3) Determination of ROS generation: To measure intracellular generation of ROS, cells were incubated with 5 μM DCF-DA (Sigma) for 20 min at 37° C. after drug exposure. To measure mitochondrial generated ROS, cells were incubated with 5 μM of MitoSox (Invitrogen) for 20 min at 37° C. After wash with PBS, cells were trypsinized and suspended in HBSS containing 1% BSA. The fluorescence intensity of DCF and MitoSox were analyzed using an Accuri C6 flow cytometer (BD Accuri Cytometers, Ann Arbor, Mich.).
(§4) A549 non-small cell lung cancer cells (high NQO1) and MDA-MB-231 triple negative breast cancer cells (NQO1 deficient) were treated as indicated in FIG. 6. Mitochondrial ROS generation was determined by MitoSox followed by flow cytometry, essentially as described above.

[4] = system: MDA-MB-231 triple negative breast cancer cells (NQO1 deficient); assay: Mitochondrial ROS generation by MitoSox, flow cytometry; type: cell-based
Description: as §3, §4
Mitochondrial ROS generation was determined by MitoSox followed by flow cytometry. Left-shift of peak indicates decrease of ROS and right-shift of peak indicates increase of ROS.

A549 cells [5] = assay: Annexin V and PI staining (apoptotic and necrotic cell death); type: cell-based; details: A549, 6 μM, 20 h, compared to unconjugated 3-hydroxy-β-lapachone (FIG. 3E)
Description: as §1, with “The formation of vacuoles was examined by phase contrast microscopy. Representative images are shown. (3E) A549 cells were treated as described above.” left out, “Representative images are shown.” left out
(§5) Cell viability and apoptosis assays: Cell viability was determined using a CellTiter-Blue Cell Viability Assay (Promega, Madison, Wis.). The survival fractions were calculated after setting untreated control cells at 100%. An FITC Annexin V Apoptosis Detection Kit (BD PharMingen, San Diego, Calif.) was used to quantify apoptotic cells and necrotic cells, according to the manufacturer's instructions.

[6] = system: A549 non-small cell lung cancer cells; assay: Colony forming capacity (crystal violet) 10 days after drug treatment; type: cell-based
Description: Drug efficacy was determined by colony forming capacity using crystal violet 10 days after drug treatment.
A549 non-small cell lung cancer cells were treated with XJB-lapachone alone or combination with cisplatin or etoposide for 4 h at concentrations indicated in FIG. 10. Drug efficacy was determined by colony forming capacity 10 days after drug treatment.
A549 cells were treated with XJB-lapachone for 4 h. XJB-lapachone was then washed away before IR exposure (gamma-irradiation with a Shepherd Mark I Model 68 [^137Cs] irradiator) at 0, 1, 2, 4, and 6 Gy (grays). The number of colonies was counted 10 days after IR exposure (FIG. 11).

A549 lung cancer cells = assay: Cell growth/death assay (4 h exposure, wash-out, 3 days drug free); type: cell-based; details: A549, 10 μM for 4 h, washed, 3 days drug free media (FIG. 3C)
Description: as §1, with “The formation of vacuoles was examined by phase contrast microscopy. Representative images are shown. (3E) A549 cells were treated as described above.” left out, “Representative images are shown.” left out
as §5, with “instructions. […]” for “instructions.”

[7] = system: PEO1 ovarian cancer cells; assay: CellTiter-Blue cell viability assay, 24 h treatment; type: cell-based; details: indicated concentrations, 24 h (FIG. 3B)
Description: as §1
(§6) Cell culture: A549 non-small cell lung cancer cells and MDA-MB-231 breast carcinoma cells were obtained from American Type Culture Collection (ATCC). Ovarian cancer cells PEO1 were kindly provided by Dr. Karyn J. Hansen (Magee-Womens Hospital of UPMC). 983B melanoma cells were kindly provided by Dr. Stergios J. Moschos (University of North Carolina). IMR90 normal lung fibroblast cells were kindly provided by Dr. Christopher Bakkenist (University of Pittsburgh Cancer Institute). Cells were cultured in either RPMI 1640 or DMEM media supplemented with 10% heat-inactivated fetal calf serum and 1% penicillin-streptomycin in 5% CO2 at 37° C.
as §5
(§7) In order to investigate the cellular toxicity of 18 (XJB-lapachone), A549 nonsmall cell lung cancer cells were treated with various concentrations of XJB-lapachone for 24 h, and compared its effect with XJB-OMe (the mitochondrial targeting moiety) and unconjugated 3-hydroxy-β-lapachone (14). […] Furthermore, XJB-lapachone is also effective against other types of tumor cells, including PEO1 ovarian cancer cells, MDA-MB-231 breast cancer cells, and 983B melanoma cells (FIG. 3B). […] Tumor selectivity of β-lapachone, and whether the same is maintained after XJB conjugation, was examined. The cytotoxic effect of XJB-lapachone on A549 lung cancer and non-transformed human lung fibroblast cells IMR90 was determined by a cell growth/death assay.

983B melanoma cells = assay: as above; type: cell-based; details: 983B cells, indicated concentrations, 24 h (FIG. 3B)
Description: as §1, §6, §5, §7

[8] = system: MDA-MB-231 breast cancer cells; assay: as above; type: cell-based; details: MDA-MB-231 cells (NQO1 deficient), indicated concentrations, 24 h (FIG. 3B)
Description: as §1, §6, §5, §7

[9] = system: A549 non-small cell lung cancer cells; assay: as above; type: cell-based; details: various concentrations, CellTiter-Blue (FIG. 3A)
Description: as §1, §6, §5, §7

DNA damage signaling = assay: Western blot of DNA damage signaling activation; type: cell-based; details: A549, western blot after treatment (FIG. 9)
Description: Western blot was performed […] after treatment to examine the activation of DNA damage signaling. Antibodies used in the Western Blot were β-actin (AC-15) and ATM (MAT3-4G10/8) (from Sigma); Chk1 (2G1D5), phospho-Chk2 (Thr68) (C13C1), Chk2 (1C12) (from Cell Signaling Technology); phospho-Chk1 (Ser317) (from R&D systems); and phospho-ATM (S1981) (from Epitomics).

LC3 = assay: Western blot of autophagy marker LC3; type: cell-based; details: A549, western blot (FIG. 4D)
Description: as §2
Western blot analysis: Western blot was performed. Primary antibody LC3 was obtained from Novus (Littleton, Colo.) and β-actin was purchased from Sigma-Aldrich (St. Louis, Mo.).

[10] = system: IMR90 lung fibroblast cells; assay: Cell growth/death assay (4 h exposure, wash-out, 3 days drug free); type: cell-based, human; details: IMR90, 10 μM for 4 h, washed, 3 days drug free media (FIG. 3C)
Description: as §1, with “The formation of vacuoles was examined by phase contrast microscopy. Representative images are shown. (3E) A549 cells were treated as described above.” left out, “Representative images are shown.” left out
as §5, with “instructions. […]” for “instructions.”

A549 cells [11] = assay: Mitochondria morphology by transmission electron microscopy; type: cell-based; details: A549, 6 μM, 16 h, electron microscopy (FIG. 4C)
Description: as §2
Microscopy: For vacuole imaging, A549 cells were plated in 12-well plate, treated with compounds and the phase contrast images were captured using a Nikon Eclipse TS100 inverted microscope. For transmission electron microscopy analysis, A549 cells cultured in 6-well plate were fixed with 2.5% glutaraldehyde (Sigma-Aldrich) in PBS for 1 h at room temperature, and post-fixed for 1 h at 4° C. in 1% OsO4 with 1% K3Fe(CN)6. After dehydration and embedding, ultrathin (70 nm) sections were cut and mounted onto copper grids. […]

CC1(C)OC2=C(CC1O)C(=O)C(=O)c1ccccc12 (stereo not drawn) [3-hydroxy-β-lapachone, reference compound]
induction of cell death in rho0 cells (cell viability) (MDA-MB-231 rho0 cells): not
vacuolization (formation of vacuoles) (A549 cells [1]): not detected
inhibition of mitochondrial respiration (oxygen consumption) by oligomycin after treatment (A549 cells [2]): oligomycin was efficient in inhibiting the mitochondrial respiration

CC(C)C[C@@H](/C=C/[C@H](Cc1ccccc1)C(=O)N1CCC[C@H]1C(=O)N[C@H](C(=O)N[C@@H](CCCNC(=O)OCc1ccccc1)C(=O)NCCC(=O)OC1CC2=C(OC1(C)C)c1ccccc1C(=O)C2=O)C(C)C)NC(=O)OC(C)(C)C (stereo partly drawn) [XJB-lapachone, 2,2-Dimethyl-5,6-dioxo-3,4,5,6-tetrahydro-2H-benzo[h]chromen-3-yl 3-((S)-2-((S)-2-((S)-1-((2S,5S,E)-2-benzyl-5-((tert-butoxycarbonyl)amino)-7-methyloct-3-enoyl)pyrrolidine-2-carboxamido)-3-methylbutanamido)-5-(((benzyloxy)carbonyl)amino)pentanamido) propanoate]
induction of cell death in rho0 cells (cell viability) (MDA-MB-231 rho0 cells): effective in inducing cell death in rho0 cells
mitochondrial ROS generation (MitoSox), dose and time dependence (A549 cells [3]; A549 (high NQO1) (FIG. 6)): Induces Mitochondrial ROS Generation in a Dose and Time Dependent Manner
ROS generation (DCF) (A549 cells [3]): dramatic increase of ROS generation
mitochondrial ROS generation (MitoSox) (A549 cells [3]): dramatic increase of ROS generation
ROS generation (DCF) (A549 cells [3]; listed as 18): stronger than unconjugated 3-hydroxy-β-lapachone
mitochondrial ROS generation (MitoSox) (A549 cells [3]; listed as 18): stronger than unconjugated 3-hydroxy-β-lapachone
mitochondrial ROS generation (MitoSox), dose and time dependence ([4]; MDA-MB-231 (NQO1 deficient) (FIG. 6)): Induces Mitochondrial ROS Generation in a Dose and Time Dependent Manner
mitochondrial ROS levels at high concentration ([4]; MDA-MB-231, 2 h, high concentration (FIG. 7)): Increases Mitochondrial ROS
mitochondrial ROS levels at low concentration ([4]; MDA-MB-231, 2 h, low concentration (FIG. 7)): Reduces Mitochondrial ROS Levels
concentration at which ROS decreased ([4]; as described in the examples): ≤ 1 µM
concentration that increases ROS production in the mitochondria ([4]; as described in the examples): > 1.0 µM and > 2.0 µM
annexin V positive cells (apoptosis) (A549 cells [5]): more annexin V positive cells were induced
vacuolization (formation of vacuoles) (A549 cells [1]): extensive vacuolization
colony forming capacity in combination with cisplatin or etoposide ([6]; A549, 4 h, alone or combination with cisplatin or etoposide, 10 days (FIG. 10)): enhances the effect of DNA-damaging anticancer agents
treatment efficacy by colony forming capacity ([6]; A549, 4 h treatment, colonies 10 days after (FIG. 5)): Higher Treatment Efficacy as Compared to Unconjugated Beta-Lapachone
number of colonies in combination with ionizing radiation ([6]; A549, 4 h treatment, washed, IR 0-6 Gy, colonies counted 10 days after (FIG. 11)): Synergistic Effect
cell viability after four-hour exposure (A549 lung cancer cells): significantly reduced the viability
cell viability [7]: effective
cell viability (983B melanoma cells): effective
cell viability [8]: effective
cell viability / cytotoxic effect ([9]; listed as XJB-Lapachone): superior compared to unconjugated β-lapachone
cell viability / cytotoxic effect ([9]; listed as XJBLapachone): reduced cell viability in a dose dependent manner
activation of DNA damage signaling (DNA damage) (DNA damage signaling): induces DNA damage
increase in LC3-II immunoblot signal (LC3): increase in an LC3-II immunoblot signal was observed
cell viability after four-hour exposure (toxic effect on non-transformed cells) [10]: toxic effect was less prominent
mitochondria morphology (A549 cells [11]): onion skin-like structures of mitochondria were observed
inhibition of mitochondrial respiration (oxygen consumption) by oligomycin after treatment (A549 cells [2]): can no longer be inhibited by oligomycin
